Source: patent US20140031275A1, “METHODS OF ERADICATING BACTERIAL CELL POPULATIONS” (priority 2011, published 2014)

Experiments:
[1] = test system: stationary S. aureus; conditions: high concentrations (24 μg/ml); sterilization not reported; cited from earlier work
[2] = test system: MRSA strain; test: Oxacillin MIC of MRSA strain; assay type: cell-based, S. aureus; conditions: Staphylococcus aureus
Description: (§1) Resistance to methicillin and oxacillin is the hallmark of MRSA.

[3] = test system: stationary MRSA 37 culture; assay type: cell-based, S. aureus
Method: Black line represents the limit of detection
The ability of ADEP 10c to kill an S. aureus MRSA strain was also evaluated.
as §1

[4] = test system: stationary state S. aureus SA113; test: Antibiotic action against stationary state S. aureus SA113 (MSSA), cfu counts; assay type: cell-based; conditions: for effect on stationary population of S. aureus cells: antibiotic alone, 5-day incubation, FIG. 1
Method: FIG. 1 is a graph showing antibiotic action against stationary state S. aureus. SA113.
(§2) Referring to FIG. 1, antibiotic action against stationary state S. aureus. SA113, an MSSA commonly used as a S. aureus model strain, was evaluated. S. aureus SA113 was grown in Mueller-Hinton broth for 24 hours. Antibiotics were added at day 0. Time-points were taken every 24 hours. 100 μl of culture was removed, centrifuged for one minute, and the cells were resuspended in PBS. Serial dilutions from neat to 10^−6 were spotted on MHA plates and incubated overnight at 37° C. The results shown in FIG. 1 are the averages of three independent experiments.

[5] = from literature, healthy volunteers; cited from earlier work
[6] = test system: S. aureus; test: MIC against S. aureus; assay type: cell-based
Method: as §2

In the case of `CCCCCCCCCC(=O)N[C@@H](Cc1c[nH]c2ccccc12)C(=O)N[C@H](CC(N)=O)C(=O)N[C@@H](CC(=O)O)C(=O)N[C@@H]1C(=O)NCC(=O)N[C@@H](CCCN)C(=O)N[C@@H](CC(=O)O)C(=O)N[C@H](C)C(=O)N[C@@H](CC(=O)O)C(=O)NCC(=O)N[C@H](CO)C(=O)N[C@@H]([C@H](C)CC(=O)O)C(=O)N[C@@H](CC(=O)c2ccccc2N)C(=O)O[C@@H]1C` [Daptomycin], the “activity against stationary S. aureus” value [1] is listed as “some activity”.

With `Cc1onc(-c2ccccc2)c1C(=O)N[C@@H]1C(=O)N2[C@@H]1SC(C)(C)[C@@H]2C(=O)O` [oxacillin] the MIC [2] was > 75 µg/mL, the “killing of clpP mutants of MRSA” value [3] was “killed clpP mutants of MRSA” and the “killing of stationary MRSA cells” value ([3]; oxacillin alone) was “no effect”. For the same molecule, the “effect on stationary population of S. aureus cells” value (from here on “effect on stationary population”) [4] was “little effect” and the clinically achievable concentrations [5] was 16 µg/mL.

In the case of `CC(=O)NC[C@H]1CN(c2ccc(N3CCOCC3)c(F)c2)C(=O)O1` [linezolid], the “effect on stationary population” value [4] is given as “little effect” and the clinically achievable concentrations [5] is given as 14.5 µg/mL.

In the case of `CO[C@H]1/C=C/O[C@@]2(C)Oc3c(C)c(O)c4c(O)c(c(/C=N/N5CCN(C)CC5)c(O)c4c3C2=O)NC(=O)/C(C)=C\C=C\[C@H](C)[C@H](O)[C@@H](C)[C@@H](O)[C@@H](C)[C@H](OC(C)=O)[C@@H]1C` [rifampicin], the clinically achievable concentrations [5] is given as 7.2 µg/mL.

In the case of “L-proline, 3-fluoro-N-[(2E)-1-oxo-2-hepten-1-yl]-L-phenylalanyl-L-seryl-L-prolyl-(2S)-4-methyl-2-piperidinecarbonyl-L-alanyl-, (6→2)-lactone [ADEP 10c]”, the MIC ([6]; S. aureus) is reported as 5 µg/mL, the MIC ([6]; tested with a variety of MSSA and MRSA isolates) is reported as 5 µg/mL and the “cell numbers of the stationary population” value [4] is reported as “about 10^4 per ml”. For the same molecule, the “killing of stationary cells, ADEP 10c compared with ADEP 4” value [4] was “more efficacious at killing stationary cells”.

With `O=C(O)c1cn(C2CC2)c2cc(N3CCNCC3)c(F)cc2c1=O` [ciprofloxacin] the “effect on stationary population” value [4] was “little effect”.
